Experimental data: patent US20260174875A1 (Novo Nordisk A/S, priority 2023, published 2026)
Where two headings read alike, the source gives them in different places. Numbered stars: 1 amine (or outer) side, 2 acyl side, 3 side chain; on linkers, the order of the positions; unused ones are H or OH. Square brackets hold non-standard residues; d marks the D form. Side chains are listed from the residue outwards. * marks the point of attachment. C18 diacid = O=C(O)CCCCCCCCCCCCCCCCC(=O)*; γGlu = O=C(O)[C@H](CCC(=O)[*:2])N[*:1]; AEEA = NCCOCCOCC(=O)O; Aib = CC(C)(N)C(=O)O

Assays:
Assay type in all cases: cell-based
[1] = target: T1, human GLP-1 receptor (hGLP-1R) (Homo sapiens, UniProt P43220); experiment: GLP-1 receptor assay, method A (CRE-luciferase reporter, BHK cells)
T1 construct: expressed in transfected cells
Method: (§1) To assess how the activation of the receptors is potentially influenced by the presence of human serum albumin (HSA), the in vitro assays were performed in the absence of HSA and presence of 1% (w/v) HSA.
Cells at approximately 80-90% confluence were washed once in PBS (Gibco 14190-094) and loosened from the cell flasks with Versene (Gibco, 15040-033). […] Cells were aliquoted and stored at −180° C. until use.
(§2) The assay buffer consisted of DMEM without phenol red (Gibco, 11880-028) supplemented with 1× GlutaMAX (Gibco, 35050-038), 10 mM HEPES (Gibco, 15630-056), 1% (w/v) ovalbumin (Sigma, A5503) and 0.1% (v/v) Pluronic F-68 (Gibco, 24040-032) either with HSA or without HSA (Sigma, A9511).
Frozen stocks of hGLP-1R BHK CRE-Luc cells were thawed in a 37° C. water bath, washed once in PBS (Gibco 14190-094) and diluted to 1.5×10^6 (1.5E+6) cells/mL in assay buffer with or without 2% (w/v) HSA (Sigma, A9511). […] The assay plates were incubated for 3 hours at 37° C. in 5% CO2, left at room temperature for 5 minutes after which 100 μL steadylite Plus™ (PerkinElmer/Revvity, 6066759) was added to each well. Plates were sealed and incubated at room temperature with gentle shaking for 30 minutes while protected from light. Luminescence was detected on a luminescence plate reader e.g., a Synergy 2 (BioTek).

[2] = target: T2, human GIP receptor (hGIPR) (Homo sapiens, UniProt P48546); experiment: GIP receptor assay, method A (CRE-luciferase reporter, BHK cells)
T2 construct: expressed in transfected cells
T2 sequence (P48546 22-466): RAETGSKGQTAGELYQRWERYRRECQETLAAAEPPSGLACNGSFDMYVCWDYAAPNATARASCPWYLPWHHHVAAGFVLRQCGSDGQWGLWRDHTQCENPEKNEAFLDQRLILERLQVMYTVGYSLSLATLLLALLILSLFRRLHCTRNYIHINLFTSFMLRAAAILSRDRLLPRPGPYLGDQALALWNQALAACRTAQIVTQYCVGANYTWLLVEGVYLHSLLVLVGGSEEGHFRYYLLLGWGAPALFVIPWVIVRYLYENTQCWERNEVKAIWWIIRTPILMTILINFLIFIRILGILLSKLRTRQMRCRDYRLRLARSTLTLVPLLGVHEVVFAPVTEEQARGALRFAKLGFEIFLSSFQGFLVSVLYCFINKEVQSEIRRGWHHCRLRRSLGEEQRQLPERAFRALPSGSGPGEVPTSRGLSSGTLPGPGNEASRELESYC
Method: To assess how the activation of the receptors is potentially influenced by the presence of human serum albumin (HSA), the in vitro assays were performed in the absence of HSA and presence of 1% (w/v) HSA. Unless stated otherwise the reference to the “GIP receptor assay as described in Example 4” throughout the specification shall refer to the described herein assay procedure method A (hGIPR assay) in the absence of HSA.
Activation of the human GIP receptor leads to increased intra-cellular concentrations of cyclic AMP (cAMP) and the consequent transcription activation from promoters containing multiple copies of the cAMP response element (CRE). It is thus possible to measure GIP receptor activity using a CRE-luciferase reporter gene introduced into Baby Hamster Kidney (BHK) cells co-expressing the human GIP receptor.
Cells at about 80-90% confluency were washed once with PBS (Gibco 14190-094) and detached from the cell flasks with Versene (Gibco, 15040-066). After centrifugation, the cells were counted, resuspended and diluted to approximately 1.5-3.0×10^6 (1.5E+6 to 3.0E+6) cells/mL in Recovery Cell Culture Freezing Medium (Gibco, 12648-010) and stored at −180° C. in suitable aliquots until use.
as §2
On the day before the assay hGIPR BHK Cre-Luc cells were thawed and plated out in 96 well Culture Plates (PerkinElmer/Revvity, 6005680) at 5.0×10^3 (5.0E+3) cells/well in growth medium as described above. The plates were then incubated for 21-23 hours at 37° C. with 5% CO2. On the day of the assay GLP-1-/GIP-/amylin-receptor tri-agonists or reference compounds were diluted in assay buffer using a 7-point, 10-fold titration plus a blank (absence of compound). Each compound was diluted and tested in duplicates in each experiment. In the plates containing the cells the growth medium was removed, and cells were washed twice with 100 μL PBS (Gibco 14190-094). 50 μL of the test compound dilutions were added to the plates containing cells preceded by 50 μL assay buffer with or without 2% (w/v) HSA (Sigma, A9511). The cell plates were incubated for 3 hours in a 5% CO2 incubator at 37° C. The plates were then transferred to room temperature followed by addition of 100 μL steadylite Plus™ (PerkinElmer/Revvity, 6066759). The plates were sealed and shaken for 30 minutes at room temperature while protected from light. Finally, luminescence (as an indicator of receptor activation) was measured on a Mithras reader (Berthold Technologies, DE). The EC50-values [pM] were calculated by non-linear curve fitting applying a four-parameter logistic model (Hill slope=“shared value for all datasets”) using GraphPad Prism (GraphPad Software, Boston, MA, USA).

[3] = target: T3, human amylin receptor (hAMYR3) (Homo sapiens, UniProt O60896+P30988); experiment: Amylin receptor assay, method A (CRE-luciferase reporter, BHK cells)
T3 construct: host or cells: BHK cells (Hollex-1 line expressing hCTR(a) and CRE-Luc), further transfected with human RAMP3
Method: as §1
It is thus possible to measure hAMYR3 activity using a CRE-luciferase reporter gene introduced into Baby Hamster Kidney (BHK) cells co-expressing the hAMYR3.
The cell line was further transfected with human receptor modifying protein 3 (RAMP3) using standard methods.
After centrifugation, the cell pellet was resuspended and diluted to approximately 2.5-4.0×10^6 (2.5E+6 to 4.0E+6) cells/mL in Recovery™ Cell Culture Freezing Medium (Gibco, 12648-010). Cells were aliquoted and stored at −180° C. until use.
The assay buffer consisted of DMEM without phenol red (Gibco, 11880-028) supplemented with 1× GlutaMAX (Gibco, 35050-038), 10 mM HEPES (Gibco, 15630-056) and 1% (w/v) ovalbumin (Sigma, A5503) either with or without 0.1% (v/v) Pluronic F-68 (Gibco, 24040-032) and either with or without HSA (Sigma, A9511).
The plate was incubated over night at 37° C. in 5% CO2. […] Luminescence was detected on a luminescence plate reader e.g., a Synergy 2 (BioTek).

[4] = hGLP-1R Potency, 1% HSA, EC50, method A, in the presence of 1% HSA
[5] = method A, absence of HSA, read-out: hGLP-1R Potency, no HSA, EC50
[6] = hGIPR Potency, 1% HSA, EC50, method A, in the presence of 1% HSA
[7] = method A, absence of HSA, read-out: hGIPR Potency, no HSA, EC50
[8] = hAMYR3 Potency, 1% HSA, EC50, method A, in the presence of 1% HSA
[9] = method A, absence of HSA, read-out: hAMYR3 Potency, no HSA, EC50

T3 sequence (P30988 25-474): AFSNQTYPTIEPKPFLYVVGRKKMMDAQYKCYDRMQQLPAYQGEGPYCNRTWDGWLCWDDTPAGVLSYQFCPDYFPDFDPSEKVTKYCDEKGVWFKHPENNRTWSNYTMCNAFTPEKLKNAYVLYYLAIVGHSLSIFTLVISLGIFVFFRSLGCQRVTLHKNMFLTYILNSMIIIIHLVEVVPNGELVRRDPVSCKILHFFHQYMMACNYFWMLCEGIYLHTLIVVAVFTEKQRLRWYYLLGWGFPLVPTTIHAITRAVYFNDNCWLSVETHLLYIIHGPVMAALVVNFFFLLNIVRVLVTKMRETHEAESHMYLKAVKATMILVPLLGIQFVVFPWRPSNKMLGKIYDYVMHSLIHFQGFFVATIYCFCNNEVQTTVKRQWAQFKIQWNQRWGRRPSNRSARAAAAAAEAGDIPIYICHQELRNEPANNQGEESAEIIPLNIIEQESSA
T3 sequence (O60896 24-148): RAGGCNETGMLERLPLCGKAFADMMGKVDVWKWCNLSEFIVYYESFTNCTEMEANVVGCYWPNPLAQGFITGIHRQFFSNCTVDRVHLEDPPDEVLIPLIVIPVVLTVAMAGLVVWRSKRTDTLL
T1 sequence (P43220 24-463): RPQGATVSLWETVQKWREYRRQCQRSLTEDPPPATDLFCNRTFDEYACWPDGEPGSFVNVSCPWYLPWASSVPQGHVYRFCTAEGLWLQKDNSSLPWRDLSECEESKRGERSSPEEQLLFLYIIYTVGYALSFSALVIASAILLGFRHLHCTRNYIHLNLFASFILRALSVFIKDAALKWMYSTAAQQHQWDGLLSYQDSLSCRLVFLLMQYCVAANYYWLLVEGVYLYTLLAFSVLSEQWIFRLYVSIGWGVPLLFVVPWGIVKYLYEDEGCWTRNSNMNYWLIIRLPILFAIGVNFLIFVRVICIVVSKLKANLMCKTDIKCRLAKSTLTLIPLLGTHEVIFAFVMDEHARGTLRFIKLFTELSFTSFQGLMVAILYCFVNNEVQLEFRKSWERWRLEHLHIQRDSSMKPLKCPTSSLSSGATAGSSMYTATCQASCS

| Substance | EC50 [1, 4] [pM] | EC50 [1, 5] [pM] | EC50 [2, 6] [pM] | EC50 [2, 7] [pM] | EC50 [3, 8] [pM] | EC50 [3, 9] [pM] | EC50 ([1]; hGLP-1R Potency, no HSA, EC50, method A, absence of HSA) [pM] | EC50 ([2]; hGIPR Potency, no HSA, EC50, method A, absence of HSA) [pM] | EC50 ([3]; hAMYR3 Potency, no HSA, EC50, method A, absence of HSA) [pM] |
| --- | --- | --- | --- | --- | --- | --- | --- | --- | --- |
| H[Aib]HGTFTSDYSILLEEQAAREFIEWLLAGGPSK([AEEA-AEEA-γGlu-C18 diacid])GALAQTLGTNEASHLSTAQTQRLSAELHELATLPRTETGSGSP-NH2 [Compound 45] | 112 | 4.78 | 132 | 2.63 | 62.4 | 4.69 |  |  |  |
| H[Aib]HGTFTSDYSILLEEQAAREFIEWLLAGGPSK([AEEA-AEEA-γGlu-C18 diacid])GALAQTLGTNEASELSTAALGRLSAELHRLATLPRTETGSGSP-NH2 [Compound 44] |  | 3.68 |  | 6.3 |  | 3.8 |  |  |  |
| Y[Aib]EGTFTSDYSILLEEQAAREFIEWLLAGGPSK([AEEA-AEEA-γGlu-C18 diacid])GEASHLSTAQTQRLSAELHELATLPRTETGSGSP-NH2 [Compound 34] |  | 21.7 |  | 1.7 |  | 6.81 |  |  |  |
| Y[Aib]EGTFTSDYSILLEEQAAREFIEWLLAGGPSSGAGQAPGQAPGASHLSTAQTARLSAELHK([AEEA-AEEA-γGlu-C18 diacid])LATLPRTETGSGSP-NH2 [Compound 113] | 57.5 | 14.4 | 8.96 | 2.02 | 136 | 2.53 |  |  |  |
| H[Aib]HGTFTSDYSILLEEQAAREFIEWLLAGGPSGGEASHLSTAQTQRLSAELHK([AEEA-AEEA-γGlu-C18 diacid])LATLPRTETGSGSP-NH2 [Compound 75] | 25.2 | 3.66 | 11.9 | 2.65 | 110 | 2.49 |  |  |  |
| H[Aib]HGTFTSDYSILLEEQAAREFIEWLLAGGPSK([AEEA-AEEA-γGlu-C18 diacid])GEASELSTAALGRLSAELHRLATLPRTETGSGSP-NH2 [Compound 25] |  | 2.87 |  | 4.27 |  | 3.22 |  |  |  |
| Y[Aib]EGTFTSDYSILLEEQAAREFIEWLLAGGPSSGAGQAPGQAPGASHLSTAALARLSAELHK([AEEA-AEEA-γGlu-C18 diacid])LATLPRTETGSGSP-NH2 [Compound 114] | 126 | 43.3 | 17.2 | 4.29 | 45.2 | 2.27 |  |  |  |
| Y[Aib]EGTFTSDYSILLEEQAAREFIEWLLAGGPSRGAPPPSGGGEASHLSTQTQGRLSAELHK([AEEA-AEEA-γGlu-C18 diacid])LATLPRTETGSGSP-NH2 [Compound 72] | 41.7 | 13.1 | 9.79 | 2.12 | 589 | 6.57 |  |  |  |
| H[Aib]HGTFTSDYSILLEEQAAREFIEWLLAGGPSK([AEEA-AEEA-γGlu-C18 diacid])GAPPPSGGGEASELSTAALGRLSAELHRLATLPRTETGSGSP-NH2 [Compound 30] |  | 6.37 |  | 6.8 |  | 2.28 |  |  |  |
| Y[Aib]EGTFTSDYSILLEEQAAREFIEWLLAGGPSK([AEEA-AEEA-γGlu-C18 diacid])GAEASELSTAALGRLSAELHELATLPRTETGSGSP-NH2 [Compound 32] |  | 27.6 |  | 8.09 |  | 10.1 |  |  |  |
| Y[Aib]EGTFTSDYSILLEEQAAREFIEWLLAGGPSSGAGQAPGQAPGASK([AEEA-AEEA-γGlu-C18 diacid])LSTAQTQRLSAELHRLATLPRTETGSGSP-NH2 [Compound 54] |  |  |  |  |  |  | 28.8 | 5.56 | 3.02 |
| Y[Aib]EGTFTSDYSILLEEQAAREFIEWLLAGGPSK([AEEA-AEEA-γGlu-C18 diacid])GALAQTLAQTLASELSTAALGRLSAELHELATLPRTETGSGSP-NH2 [Compound 21] |  | 41.2 |  | 8.63 |  | 12 |  |  |  |
| H[Aib]HGTFTSDYSILLEEQAAREFIEWLLAGGPSK([AEEA-AEEA-γGlu-C18 diacid])GEASQLSTAALGRLSAELHHLATLPRTETGSGSP-NH2 [Compound 66] |  | 5.25 |  | 2.39 |  | 2.32 |  |  |  |
| Y[Aib]EGTFTSDYSILLEEQAAREFIEWLLAGGPSSGAGQAPGQAPGASHLSTAQTQRLSAELHQLK([AEEA-AEEA-γGlu-C18 diacid])TLPRTETGSGSP-NH2 [Compound 102] | 47 | 11 | 12.2 | 2.24 | 134 | 3.26 |  |  |  |
| Y[Aib]EGTFTSDYSILLEEQAAREFIEWLLAGGPSK([AEEA-AEEA-γGlu-C18 diacid])GGGGEGGGEGEASHLSTAQTQRLSAELHELATLPRTETGSGSP-NH2 [Compound 40] |  | 23.3 |  | 1.63 |  | 5.49 |  |  |  |
